# How the values were obtained:
# [1] = system: BDNF promoter IV / BDNF expression; assay: BDNF expression in mouse cortical neurons (RT-qPCR); assay type: cell-based
# Description: (§1) FIGS. 3A-3E depict targeted demethylation of BDNF promoter IV by dCas9-Tet1 to activate BDNF in neurons. FIG. 3A provides a schematic representation of targeting BDNF promoter IV by dCas9-Tet1 (dC-T) with specific gRNAs to erase methylation and activate BDNF expression. […] Bars are mean t SD of three biological replicates. FIG. 3C provides representative confocal images for BDNF induction in FIG. 3B. Top panel: BDNF expression was induced by 50 mM KCl treatment for 6 hrs. […] Stained in red for MAP2 (top two panels) or Cherry (bottom two panels), green for BDNF, blue for DAPI and grey for dCas9. Scale bar: 50 um. FIG. 3D depicts bisulfite sequencing of neurons in FIG. 3C. […] Shown is the mean percentage±SD of two biological replicates.
# FIGS. 11A-11L depict targeted demethylation of BDNF promoter IV by dCas9-Tet1 in neurons. […] PAM for each gRNA is highlighted by a red box. […] Note that cultured neurons were treated with AraC on DIV2 to halt cell division in glial cells and neural progenitors. […] FIG. 11C provides EDU labeling analysis for the mouse primary neurons over the course of KCl treatment for 24 hrs. Note that extremely few EDU positive cells were observed. Stained in red for EDU, green for MAP2 and DAPI for nuclei. Scale bar: 500 um. FIG. 11D Upper panel: provides quantification of neuronal density over the course of KCl treatment. The post-mitotic neuron density remains steadily around 4.5×10^4/cm2 over time. Bars represent mean±SD of three experimental replicates. Lower panel: provides quantification of the EDU positive cells over the course of KCl treatment. Less than 2% of the cells are EDU-positive over 24 hrs. Bars represent mean±SD of three experimental replicates. FIG. 11E provides confocal micrographs of BDNF induction by ectopic expression of dCas9-Tet1 and a set of 4 gRNAs targeting BDNF promoter IV. Stained in green for BDNF, magenta for MAP2, red for Cherry and blue for DAPI. Note that the lentiviral infection efficiency is close to 100% in these neurons. Scale bar: 50 um. […] Bars represent mean±SD of three experimental replicates. […] FIG. 11J depicts DIV3 mouse cortical neurons were treated with ABT (50 uM) for 6 hours and then treated with KCl (50 mM) for 6-hour before harvest for RT-qPCR analysis. Bars represent mean±SD of three experimental replicates. FIG. 11K depicts DIV3 mouse cortical neurons were treated with 2-Hydroxyglutarate (10 mM) for 2 hours and then treated with KCl (50 mM) for 6-hour before harvest for RT-qPCR analysis. Bars represent mean±SD of three experimental replicates. FIG. 11L depicts DIV3 mouse cortical neurons derived from wild-type or Tet1 knockout E17.5 embryos were subject to time course KCl treatment experiments (6, 9 and 12 h). Bars represent mean±SD of three experimental replicates.
# DNA replication-independent active demethylation has been proposed to operate in post-mitotic neurons (Guo et al., 2011; Martinowich et al., 2003). To test whether active demethylation can be induced in post-mitotic neurons, we applied the dCas9-Tet1 system to study the regulation of the BDNF gene. BDNF expression can be induced by neuronal activity accompanied by demethylation of its promoter IV (Chen et al., 2003; Martinowich et al., 2003). We designed 4 gRNAs targeting 11 CpGs in BDNF promoter IV (FIG. 11A) to determine whether dCas9-Tet1 can activate BDNF by inducing demethylation of this promoter (FIG. 3A). Mouse cortical neurons were isolated from E17.5 embryos and cultured for two days in vitro (DIV2) following a well-established experimental procedure for producing primary neuronal culture (Ebert et al., 2013). […] Neurons at day 3 in culture (DIV3) were infected with lentiviral vectors expressing dCas9-Tet1 with or without the 4 gRNAs at almost 100% transduction efficiency (FIG. 11E). At 48-hour post infection some of the cultures were treated with KCl to induce neuronal activity. […] We performed bisulfite sequencing to examine the methylation state of BDNF promoter IV. […]
# [2] = system: C3H10T1/2 mouse embryonic fibroblast cells; assay: Fibroblast-to-myoblast conversion assay; assay type: cell-based; details: for fraction of mock C3H10T1/2 cells expressing MyoD: after 5-Aza treatment (1 uM, 24-hour)
# From the text: FIGS. 4A-4H depict targeted demethylation of the MyoD distal enhancer by dCas9-Tet1 to facilitate conversion of fibroblasts to myoblasts. FIG. 4A provides a schematic representation of targeting the MyoD distal enhancer (DE) region in DMR-5 by dCas9-Tet1 (dC-T) with specific gRNAs. […] Cherry positive cells were FACS sorted for RT-qPCR analysis. Bars represent mean±SD of three experimental replicates. FIG. 4C bisulfite sequencing of cells in FIG. 4B. […] Shown is the mean percentage±SD of two biological replicates. […] C3H10T1/2 cells were plated as 1×10^4 cells per well in 6-well plate, and then infected with lentiviruses expressing dC-T and gRNAs targeting DMR-5, or a catalytic dead form of Tet1 (dC-dT) with target gRNAs. 24-hour post infection, cells were treated with vehicle control (HEPES buffer) or 5-Azacytidine (1 uM) for 24-hour, and then harvested after 14 days for immunofluorescence staining. Stained in green for MyoD, magenta for MHC and blue for DAPI. Scale bar: 200 um. FIG. 4F provides quantification of MyoD positive cell ratio 14-day post infection with lentiviruses expressing dC-T alone, dC-T with gRNAs targeting DMR-5, and dC-dT with the target gRNAs. […] FIG. 4H provides quantification of myotube density in MHC positive clusters with more than 2 or 5 nuclei at 14-days after infection. […] Data are quantified from 3-5 representative images for F-H. Bars represent mean±SD.
# FIGS. 12A-12J depict targeted demethylation of the MyoD DMR-5 by dCas9-Tet1 and conversion of fibroblasts to myoblasts. […] PAM for each sgRNA is highlighted by a red box. FIG. 12B provides experimental scheme of the fibroblast-to-myoblast conversion assay. Briefly, C3H10T1/2 mouse embryonic fibroblast cells were plated as 1×10^4 cells per well in 6-well plate, and then infected with lentiviruses expressing dCas9-Tet1 and target gRNAs. 24-hour post infection, cells were optionally treated with 5-Azacytidine (1 uM) for 24-hour (labeled in red), and harvested for immunofluorescence staining at different time points (day-14, -16 and -25, labeled in dark blue) with medium change every other day. Scale bar: 100 um. […] Stained in green for MHC, red for MyoD and blue for DAPI. Scale bar: 200 um. FIG. 12D depicts a fraction of mock C3H10T1/2 cells expressing MyoD at different times after 5-Aza treatment. The fraction of cells expressing MyoD increases from around 6% at day 14 to around 13% at day 16 and reached around 20% at day 25. Bars represent mean±SD. FIG. 12E provides number of nuclei in MHC+ cell clusters (grouped as 1-2 and >2 nuclei per MHC+ cluster). […] Bars represent mean±SD. Data was quantified from 3-5 representative images for each group in FIG. 12D and FIG. 12E. […] Bars represent mean±SD of three experimental replicates. FIG. 12G provides representative images for C3H10T1/2 cells 16 days after infection with lentiviruses expressing dC-T and gRNAs targeting DMR-5 (MyoD distal enhancer) in a fibroblast-to-myoblast conversion assay as described in FIG. 12B. […] Stained in magenta for MHC, green for MyoD and blue for DAPI. Scale bar: 200 um. FIG. 12H depicts a fraction of MyoD positive cells 16 days after infection with lentiviruses expressing dC-T alone or with gRNAs targeting DMR-5. FIG. 12I show a number of nuclei in MHC+ cell clusters (grouped as 2-5, 6-10, 11-20 and >20 nuclei per MHC+ cluster) 16 days after infection. […] Data are quantified from 3-5 representative images for FIGS. 12H-12J. Bars represent mean±SD.
# We then investigated whether targeted demethylation of DMR-5 would synergize with 5-Aza treatment to induce myotube formation (FIG. 12B). To follow the process of myotube formation after 5-Aza treatment, a time-course experiment was performed. Multi-nucleated myotube (MHC-positive) with heterogeneous sizes began to form 14 days post treatment, and both MyoD-positive cell ratio and myotube density and size then increased up to day-25 (FIGS. 12C-12E). […]
# BDNF promoter IV [3] = assay: Tet-assisted bisulfite sequencing (TAB-seq) of 5-hmC in BDNF promoter IV; assay type: cell-based, mouse; details: KCl treatment for 6 hours
# Description: FIGS. 11A-11L depict targeted demethylation of BDNF promoter IV by dCas9-Tet1 in neurons. […] PAM for each gRNA is highlighted by a red box. […] Note that cultured neurons were treated with AraC on DIV2 to halt cell division in glial cells and neural progenitors. […] FIG. 11C provides EDU labeling analysis for the mouse primary neurons over the course of KCl treatment for 24 hrs. Note that extremely few EDU positive cells were observed. Stained in red for EDU, green for MAP2 and DAPI for nuclei. Scale bar: 500 um. FIG. 11D Upper panel: provides quantification of neuronal density over the course of KCl treatment. The post-mitotic neuron density remains steadily around 4.5×10^4/cm2 over time. Bars represent mean±SD of three experimental replicates. Lower panel: provides quantification of the EDU positive cells over the course of KCl treatment. Less than 2% of the cells are EDU-positive over 24 hrs. Bars represent mean±SD of three experimental replicates. FIG. 11E provides confocal micrographs of BDNF induction by ectopic expression of dCas9-Tet1 and a set of 4 gRNAs targeting BDNF promoter IV. Stained in green for BDNF, magenta for MAP2, red for Cherry and blue for DAPI. […]
# Because post-mitotic neurons were used for these experiments, loss of methylation was likely due to active demethylation. […] Similarly, 5-hmC was also detected after KCl treatment (FIG. 11I). […]
# BDNF promoter IV [4] = assay: Bisulfite sequencing of BDNF promoter IV in mouse cortical neurons; assay type: cell-based; details: KCl 50 mM, 6 hours
# Description: as §1
# DNA replication-independent active demethylation has been proposed to operate in post-mitotic neurons (Guo et al., 2011; Martinowich et al., 2003). To test whether active demethylation can be induced in post-mitotic neurons, we applied the dCas9-Tet1 system to study the regulation of the BDNF gene. BDNF expression can be induced by neuronal activity accompanied by demethylation of its promoter IV (Chen et al., 2003; Martinowich et al., 2003). We designed 4 gRNAs targeting 11 CpGs in BDNF promoter IV (FIG. 11A) to determine whether dCas9-Tet1 can activate BDNF by inducing demethylation of this promoter (FIG. 3A). […]
smiles,measurement,setting,value
"O=C(O)CCC(O)C(=O)O (stereo not drawn) [2-hydroxygluterate, 2-Hydroxyglutarate, reference compound]",effect on induction of BDNF expression by KCl treatment,"[1]; 10 mM for 2 hours, then KCl 50 mM for 6-hour",completely abolished the induction of BDNF expression by KCl treatment
"Nc1ncn([C@@H]2O[C@H](CO)[C@@H](O)[C@H]2O)c(=O)n1 [5-Aza, 5-Azacytidine]",MHC+ myotube formation,"[2]; 5-Aza (1 uM, 24-hour), 14 days after infection",induces MHC+ myotube formation
same,fraction of mock C3H10T1/2 cells expressing MyoD,[2]; day 14,around 6%
same,fraction of mock C3H10T1/2 cells expressing MyoD,[2]; day 16,around 13%
same,fraction of mock C3H10T1/2 cells expressing MyoD,[2]; day 25,around 20%
"C[C@]1(c2nc3c(C(N)=O)cccc3[nH]2)CCCN1 [ABT-888, reference compound]",effect on activation of BDNF by KCl treatment,"[1]; 50 uM for 6 hours, then KCl 50 mM for 6-hour",reduced the activation of BDNF by KCl treatment
"[Cl-].[K+] [KCl, reference compound]",5-hmC level in BDNF promoter IV,BDNF promoter IV [3],detected
same,methylation of BDNF promoter IV CpGs (positions relative to transcription start site),BDNF promoter IV [4],"induced demethylation of CpGs at positions of −148, −66 and 19"
same,BDNF expression,[1]; KCl 50 mM treatment of DIV3 neurons,induced BDNF expression

# — patent US12060588B2, “Methods of editing DNA methylation” (Whitehead Institute for Biomedical Research, priority 2016, dated 2024)
